Reference: patent publication US7928098B2, “Therapeutic and/or preventive agents for a sleep disorder” (Kyowa Hakko Kirin Co., Ltd., priority 2005, dated 2011)

Question: With O=C(Nc1nc(-c2ccco2)c(C(=O)c2ccnc(N3CCOCC3)c2)s1)c1ccncc1 [Compound 246, N-[4-(2-Furyl)-5-(2-morpholinopyridin-4-ylcarbonyl)thiazol-2-yl]pyridine-4-carboxamide] as the compound, how does the melting point read?
Answer: 270 to 273 °C

Question: Which melting point does the source give for COc1ccccc1C(=O)Nc1nc(-c2ccco2)c(C(=O)C2CCOCC2)s1 [Compound 366, N-[4-(2-Furyl)-5-(tetrahydropyran-4-ylcarbonyl)thiazol-2-yl]-2-methoxybenzamide] here?
Answer: 181 to 184 °C

Question: For O=C(Nc1nc(-c2ccco2)c(C(=O)c2ccncn2)s1)c1ccncc1 [Compound 282, N-[4-(2-Furyl)-5-(pyrimidine-4-ylcarbonyl)thiazol-2-yl]pyridine-4-carboxamide], which melting point is on record?
Answer: > 300 °C

Question: With O=C(Nc1nc(-c2ccco2)c(C(=O)c2ccccn2)s1)c1ccc([N+](=O)[O-])o1 [Compound 144, N-[4-(2-Furyl)-5-(pyridin-2-ylcarbonyl)thiazol-2-yl]-5-nitrofuran-2-carboxamide] as the compound, how does the melting point read?
Answer: 278 to 283 °C (dec.)

Question: For O=C(CN1CCC2(CC1)OCCO2)Nc1nc(-c2ccco2)c(C(=O)c2ccccn2)s1 [Compound 177, 2-(1,4-Dioxa-8-azaspiro[4.5]decan-8-yl)-N-[4-(2-furyl)-5-(pyridin-2-ylcarbonyl)thiazol-2-yl]acetamide], which melting point is on record?
Answer: 188 to 204 °C

Question: With O=C(Nc1nc(-c2ccco2)c(C(=O)C2CCOCC2)s1)c1cnccn1 [Compound 414, N-[4-(2-Furyl)-5-(tetrahydropyran-4-ylcarbonyl)thiazol-2-yl]pyrazine-2-carboxamide] as the compound, how does the melting point read?
Answer: 200 to 205 °C

Question: With CC(=O)c1ccc(C(=O)Nc2nc(-c3ccco3)c(C(=O)c3ccccn3)s2)cc1 [Compound 116, 4-Acetyl-N-[4-(2-furyl)-5-(pyridin-2-ylcarbonyl)thiazol-2-yl]benzamide] as the compound, how does the melting point read?
Answer: 204 to 206 °C

Question: Which melting point does the source give for CCn1cc(C(=O)Nc2nc(-c3ccco3)c(C(=O)C3CCOCC3)s2)cn1 [Compound 425, 1-Ethyl-N-[4-(2-furyl)-5-(tetrahydropyran-4-ylcarbonyl)-thiazol-2-yl]pyrazole-4-carboxamide] here?
Answer: 170 to 174 °C

Question: For Cn1nnc2ccc(C(=O)Nc3nc(-c4ccco4)c(C(=O)c4ccccn4)s3)cc21 [Compound 153, N-[4-(2-Furyl)-5-(pyridin-2-ylcarbonyl)thiazol-2-yl]-1-methyl-1H-benzotriazole-6-carboxamide], which melting point is on record?
Answer: 230 to 231 °C

Question: With O=C(Nc1nc(-c2ccco2)c(C(=O)C2CCOCC2)s1)C1CCOC1 (stereo not shown) [Compound 429, N-[4-(2-Furyl)-5-(tetrahydropyran-4-ylcarbonyl)thiazol-2-yl]tetrahydrofuran-3-carboxamide] as the compound, how does the melting point read?
Answer: 164 to 166 °C

Question: With N#Cc1ccccc1C(=O)Nc1nc(-c2ccco2)c(C(=O)C2CCOCC2)s1 [Compound 377, 2-Cyano-N-[4-(2-furyl)-5-(tetrahydropyran-4-ylcarbonyl)-thiazol-2-yl]benzamide] as the compound, how does the melting point read?
Answer: 221 to 224 °C

Question: For O=C(Nc1nc(-c2ccco2)c(C(=O)c2ccco2)s1)c1ccncc1 [Compound 249, N-[4-(Furan-2-yl)-5-(furan-2-ylcarbonyl)thiazol-2-yl]pyridine-4-carboxamide], which melting point is on record?
Answer: 245 to 248 °C

Question: With O=C(Nc1nc(-c2ccco2)c(C(=O)c2ccccn2)s1)c1ccnnc1 [Compound 135, N-[4-(2-Furyl)-5-(pyridin-2-ylcarbonyl)thiazol-2-yl]pyridazine-4-carboxamide] as the compound, how does the melting point read?
Answer: 270 to 274 °C

Question: For CC(=O)c1sc(NC(=O)c2ccncc2)nc1-c1ccco1 [Compound 284, N-[5-Acetyl-4-(2-furyl)thiazol-2-yl]pyridine-4-carboxamide], which melting point is on record?
Answer: 252 to 259 °C (dec.)

Question: Which melting point does the source give for Cc1ccnc(C(=O)c2sc(NC(=O)c3ccncc3)nc2-c2ccco2)c1 [Compound 203, N-[4-(2-Furyl)-5-(4-methylpyridin-2-ylcarbonyl)thiazol-2-yl]pyridine-4-carboxamide] here?
Answer: 240 to 245 °C

Question: Which melting point does the source give for N#Cc1cccc(C(=O)Nc2nc(-c3ccco3)c(C(=O)c3ccccn3)s2)c1 [Compound 113, 3-Cyano-N-[4-(2-furyl)-5-(pyridin-2-ylcarbonyl)thiazol-2-yl]benzamide] here?
Answer: 234 to 237 °C

Question: With Cn1cc(C(=O)c2sc(NC(=O)c3ccncc3)nc2-c2ccco2)ccc1=O [Compound 267, N-[4-(2-Furyl)-5-(1-methyl-2-oxo-1,2-dihydropyridin-5-ylcarbonyl)thiazol-2-yl]pyridine-4-carboxamide] as the compound, how does the melting point read?
Answer: 294 to 295 °C

Question: With O=C(Nc1nc(-c2ccco2)c(C(=O)C2CCOCC2)s1)c1cc(F)cc(F)c1 [Compound 399, 3,5-Difluoro-N-[4-(2-furyl)-5-(tetrahydropyran-4-ylcarbonyl)thiazol-2-yl]benzamide] as the compound, how does the melting point read?
Answer: 259 to 265 °C

Question: For CN1CCN(CC(=O)Nc2nc(-c3ccco3)c(C(=O)c3ccccn3)s2)CC1=O.Cl, which melting point is on record?
Answer: 170 to 188 °C

Question: With COc1ccccc1C(=O)Nc1nc(-c2ccco2)c(C(=O)c2ccccn2)s1 [Compound 108, N-[4-(2-Furyl)-5-(pyridin-2-ylcarbonyl)thiazol-2-yl]-2-methoxybenzamide] as the compound, how does the melting point read?
Answer: 205 to 208 °C

Question: For O=C(Nc1nc(-c2ccco2)c(C(=O)c2ccccn2)s1)c1ccoc1 [Compound 146, N-[4-(2-Furyl)-5-(pyridin-2-ylcarbonyl)thiazol-2-yl]furan-3-carboxamide], which melting point is on record?
Answer: 187 to 189 °C

Question: With O=C(CN1CCSC1)Nc1nc(-c2ccco2)c(C(=O)c2ccccn2)s1 [Compound 189, N-[4-(2-Furyl)-5-(pyridin-2-ylcarbonyl)thiazol-2-yl]-2-(1,3-thiazolidin-3-yl)acetamide] as the compound, how does the melting point read?
Answer: 153 to 155 °C

Question: Which melting point does the source give for COC1CCC(C(=O)c2sc(NC(=O)c3ccncc3)nc2-c2ccco2)CC1 (stereo not shown) [Compound 347, N-[4-(2-Furyl)-5-(4-methoxycyclohexylcarbonyl)thiazol-2-yl]pyridine-4-carboxamide] here?
Answer: 180 to 187 °C

Question: Which melting point does the source give for O=C(c1ccccn1)c1sc(NC(=O)C2CCOCC2)nc1-c1ccco1 [Compound 102, N-[4-(2-Furyl)-5-(pyridin-2-ylcarbonyl)thiazol-2-yl]tetrahydropyran-4-carboxamide] here?
Answer: 234 to 235 °C

Question: Which melting point does the source give for O=C(Nc1nc(-c2ccco2)c(C(=O)c2ccccn2)s1)c1cc(Cl)nc(Cl)c1 [Compound 124, 2,6-Dichloro-N-[4-(2-furyl)-5-(pyridin-2-ylcarbonyl)thiazol-2-yl]pyridine-4-carboxamide] here?
Answer: 254 to 258 °C

Question: Which melting point does the source give for COc1cccc(C(=O)Nc2nc(-c3ccco3)c(C(=O)C3CCC(=O)CC3)s2)c1 [Compound 356, N-[4-(2-Furyl)-5-(4-oxocyclohexylcarbonyl)thiazol-2-yl]-3-methoxybenzamide] here?
Answer: 176 to 183 °C

Question: With CN(C)c1ccc(C(=O)Nc2nc(-c3ccco3)c(C(=O)C3CCOCC3)s2)cc1 [Compound 370, 4-(Dimethylamino)-N-[4-(2-furyl)-5-(tetrahydropyran-4-ylcarbonyl)thiazol-2-yl]benzamide] as the compound, how does the melting point read?
Answer: 238 to 240 °C

Question: With O=C(CN1CCC(N2CCCCC2)CC1)Nc1nc(-c2ccco2)c(C(=O)c2ccccn2)s1 [Compound 178, N-[4-(2-Furyl)-5-(pyridin-2-ylcarbonyl)thiazol-2-yl]-2-(4-piperidinopiperidino)acetamide] as the compound, how does the melting point read?
Answer: 214 to 220 °C (dec.)

Question: Which melting point does the source give for CN(C)CC(=O)Nc1nc(-c2ccco2)c(C(=O)C2CCOCC2)s1 [Compound 438, 2-(Dimethylamino)-N-[4-(2-furyl)-5-(tetrahydropyran-4-ylcarbonyl)thiazol-2-yl]acetamide] here?
Answer: 129 to 130 °C

Question: Which melting point does the source give for CC(C)(C)NC(=O)Nc1nc(-c2ccco2)c(C(=O)c2ccccn2)s1 [Compound 167, N-tert-Butyl-N′-[4-(2-furyl)-5-(pyridin-2-ylcarbonyl)thiazol-2-yl]urea] here?
Answer: 123 to 124 °C

Question: For O=C(Nc1nc(-c2ccco2)c(C(=O)c2cccnc2)s1)c1ccncc1 [Compound 211, N-[4-(2-Furyl)-5-(pyridin-3-ylcarbonyl)thiazol-2-yl]pyridine-4-carboxamide], which melting point is on record?
Answer: 245 to 248 °C

Question: Which melting point does the source give for Cc1cc(C(=O)Nc2nc(-c3ccco3)c(C(=O)c3ccccn3)s2)ccn1 [Compound 120, N-[4-(2-Furyl)-5-(pyridin-2-ylcarbonyl)thiazol-2-yl]-2-methylpyridine-4-carboxamide] here?
Answer: 187 to 188 °C

Question: Which melting point does the source give for O=C(Nc1nc(-c2ccco2)c(C(=O)C2CCOCC2)s1)c1cccc(F)c1 [Compound 372, 3-Fluoro-N-[4-(2-furyl)-5-(tetrahydropyran-4-ylcarbonyl)-thiazol-2-yl]benzamide] here?
Answer: 229 to 231 °C

Question: For N#Cc1ccc(C(=O)Nc2nc(-c3ccco3)c(C(=O)c3cccnc3)s2)cc1 [Compound 213, 4-Cyano-N-[4-(2-furyl)-5-(pyridin-3-ylcarbonyl)thiazol-2-yl]benzamide], which melting point is on record?
Answer: 288 to 290 °C

Question: For O=C(CC1CCOCC1)Nc1nc(-c2ccco2)c(C(=O)C2CCOCC2)s1 [Compound 430, N-[4-(2-Furyl)-5-(tetrahydropyran-4-ylcarbonyl)thiazol-2-yl]-2-(tetrahydropyran-4-yl)acetamide], which melting point is on record?
Answer: 206 to 209 °C

Question: Which melting point does the source give for O=C(Nc1nc(-c2ccco2)c(C(=O)C2CCOCC2)s1)c1ccc2c(c1)OC(F)(F)O2 [Compound 403, 2,2-Difluoro-N-[4-(2-furyl)-5-(tetrahydropyran-4-ylcarbonyl)thiazol-2-yl]-1,3-benzodioxol-5-carboxamide] here?
Answer: 124 to 129 °C

Question: For O=C(Nc1nc(-c2ccco2)c(C(=O)C2CCOCC2)s1)c1ccnc(Cl)c1 [Compound 404, 2-Chloro-N-[4-(2-furyl)-5-(tetrahydropyran-4-ylcarbonyl)-thiazol-2-yl]pyridine-4-carboxamide], which melting point is on record?
Answer: 185 to 186 °C

Question: With O=C(Nc1nc(-c2ccco2)c(C(=O)c2ccccc2)s1)c1ccnc(CN2CCOCC2)c1 [Compound 52, N-[5-Benzoyl-4-(2-furyl)thiazol-2-yl]-2-(morpholinomethyl)pyridine-4-carboxamide] as the compound, how does the melting point read?
Answer: 212 to 213 °C

Question: Which melting point does the source give for O=C(Nc1nc(-c2ccco2)c(C(=O)C2CCOCC2)s1)c1c(F)cccc1F [Compound 397, 2,6-Difluoro-N-[4-(2-furyl)-5-(tetrahydropyran-4-ylcarbonyl)thiazol-2-yl]benzamide] here?
Answer: 168 to 170 °C

Question: With Cc1ccc(C(=O)c2sc(NC(=O)c3ccco3)nc2-c2ccco2)cn1 [Compound 222, N-[4-(2-Furyl)-5-(2-methylpyridin-5-ylcarbonyl)thiazol-2-yl]furan-2-carboxamide] as the compound, how does the melting point read?
Answer: 197 to 209 °C
